Reference: patent US8710099B2, “Treatment of cancer using the sodium salt of a benzoic acid derivative” (New York University, priority 2009, dated 2014)

Legend:
[1] = test system: Panc-1 human pancreatic carcinoma cells; assay: Panc-1 pancreatic carcinoma proliferation, MTT assay; format: cell-based; conditions: 4.7, 9.3, 17.3, 37.5, and 75 μg/mL, 3 days; FIG. 14B
Protocol: Panc-1 human pancreatic carcinoma cells were allowed to proliferate over a 3-day time course in the presence or absence of a series of concentrations of C-45-Na (4.7, 9.3, 17.3, 37.5, and 75 μg/mL) of or C-45-HCl. DMSO control samples lacking C-45-Na and were also prepared. Treated cells (1,500/well) were added to individual wells of a cell culture microtiter plate and allowed to grow over a time course of 3 days. Proliferation was monitored using a commercially available MTT assay (Millipore). Data points represent the mean±standard deviations from triplicate wells.

Human M21 melanoma cells [2] = assay: M21 melanoma cell proliferation, MTT assay; format: cell-based
Protocol: Human M21 melanoma cells were washed and re-suspended in proliferation buffer containing 1.0% serum in the presence or absence of 100 ng/mL of C-45-Na, or C-45-HCl. DMSO control samples lacking C-45-Na or C-45-HCl were also prepared. Treated cells (1,500/well) were added to individual wells of a cell culture microtiter plate and allowed to grow over a time course of 3 days. Proliferation was monitored using a commercially available MTT assay (Millipore). Data points represent the mean±standard deviations from triplicate wells.
Human M21 melanoma cells were washed and re-suspended in proliferation buffer containing 1.0% serum in the presence or absence of 100 ng/mL of C-45-Na, or C-45-HCl. Treated cells (1,500/well) were added to individual wells of a cell culture microtiter plate and allowed to grow over a time course of 3 days. Proliferation was monitored using a commercially available MTT assay (Millipore). Data points represent the mean±standard deviations from triplicate wells.
Human M21 melanoma cells were washed and re-suspended in proliferation buffer containing 0.5% serum in the presence of 50 μg/mL of C-45-Na, C-45-K, or C-45-HCl. DMSO control samples lacking C-45-Na, C-45-K, and C-45-HCl were also prepared. Treated cells (1,500/well) were added to individual wells of a cell culture microtiter plate and allowed to grow over a time course of 3 days. Proliferation was monitored using a commercially available MTT assay (Millipore). Data points represent the mean±standard deviations from triplicate wells.
(§1) In Example 6, the differential effects of C-45-Na on normal human melanocytes, normal human keratinocytes and human melanoma cells were examined Normal human melanocytes, keratinocytes and M21 melanoma cells were allowed to proliferate in the presence or absence of C-45-Na (50 μg/mL) for 24 hours. Proliferation was monitored using a commercially available MTT assay (Millipore).

C8161 melanoma cells = assay: Melanoma cell morphology; format: cell-based, human; conditions: 100 μg/mL, 24 hours; FIG. 11B
Protocol: (§2) Human M21 melanoma cells or C8161 melanoma cells were incubated in the presence of 100 μg/mL of C-45-Na or C-45-HCl for 24 hours. DMSO control samples lacking C-45-Na and C-45-HCl were also prepared.

Normal human melanocytes = assay: Normal melanocyte proliferation, MTT assay; format: cell-based; conditions: 50 μg/mL, 24 hours; FIG. 12B
Protocol: as §1

Human M21 melanoma cells [3] = assay: Melanoma cell morphology; format: cell-based; conditions: 100 μg/mL, 24 hours; FIG. 11A
Protocol: as §2

[4] = test system: C8161 human melanoma cells; assay: C8161 melanoma cell proliferation, MTT assay; format: cell-based; conditions: 100 μg/mL, 0.5% serum, 3 days; FIG. 13A
Protocol: (§3) C8161 and A375 human melanoma cells were washed and re-suspended in proliferation buffer containing 0.5% serum in the presence of 100 μg/mL of C-45-Na or C-45-HCl. DMSO control samples lacking C-45-Na and C-45-HCl were also prepared. Treated cells (1,500/well) were added to individual wells of a cell culture microtiter plate and allowed to grow over a time course of 3 days. Proliferation was monitored using a commercially available MTT assay (Millipore). Data points represent the mean±standard deviations from triplicate wells.

[5] = test system: A375 human melanoma cells; assay: A375 melanoma cell proliferation, MTT assay; format: cell-based; conditions: 100 μg/mL, 0.5% serum, 3 days; FIG. 13B
Protocol: as §3

[6] = test system: MDA-MB 231 human breast carcinoma cells; assay: MDA-MB 231 breast carcinoma proliferation, MTT assay; format: cell-based; conditions: 100 μg/mL, 0.5% serum, 3 days; FIG. 14A
Protocol: MDA-MB 231 human breast carcinoma cells were washed and re-suspended in proliferation buffer containing 0.5% serum in the presence of 100 μg/mL of C-45-Na or C-45-HCl. DMSO control samples lacking C-45-Na and C-45-HCl were also prepared. Treated cells (1,500/well) were added to individual wells of a cell culture microtiter plate and allowed to grow over a time course of 3 days. Proliferation was monitored using a commercially available MTT assay (Millipore). Data points represent the mean±standard deviations from triplicate wells.

[7] = test system: normal human keratinocytes; assay: Normal keratinocyte proliferation, MTT assay; format: cell-based; conditions: 50 μg/mL, 24 hours; FIG. 12C
Protocol: as §1

M21 melanoma cells = assay: M21 melanoma tumor growth in nude mice; format: in vivo
Protocol: Briefly, M21 melanoma cells (4.0×10^6) were injected subcutaneously in nude mice. Following establishment of palpable tumors (4 days), mice were either left untreated or treated daily by i.p injection with DMSO (50 μl/day), or with C-45-Na (50 μl/day) or C-45-HCl (50 μl/day) at a concentration range of 1-100 ug/day. Tumor size was monitored by caliper measurements and tumor volumes were estimated using the formula (L^2×W/2) where “L” represents length, and “W” represents width.
The effects of C45-Na on M21 melanoma tumor growth in vivo were studied. Briefly, M21 melanoma cells (4.0×10^6) were injected subcutaneously in nude mice. Following establishment of palpable tumors (4 days), mice were either left untreated or treated daily by i.p injection with DMSO (50 μl/day), or with C-45-Na concentrations of 0.1, 0.5, or 1.0 μg/day. Tumor size was monitored by caliper measurements and tumor volumes were estimated using the formula (L^2×W/2) where “L” represents length, and “W” represents width.
In experiment 11, an activity comparison between C-45-Na (1.0 μg) and C45-HCl (1.0 μg) on the in vivo growth of M21 tumors was examined following daily treatment after 21 days. Tumor size was monitored by caliper measurements and tumor volumes were estimated using the formula (L^2×W/2) where “L” represents length, and “W” represents width.

**Q.** Which results are given for `C=CCNc1ccc(C(=O)[O-])cc1.[Na+]` [C-45-Na, Sodium 4-allylaminobenzoate]?
**A.** panc-1 cell proliferation [1]: very potent anti-proliferative activity; selectivity, tumor cells versus normal human cells (Human M21 melanoma cells [2]; 50 μg/mL, 24 hours, M21 vs melanocytes and keratinocytes): selective for tumor cell proliferation rather than normal human cells; M21 tumor cell proliferation (Human M21 melanoma cells [2]; Experiment 1: 100 ng/mL, 1.0% serum, 3 days, FIG. 6): very potent anti-proliferative activity; M21 tumor cell proliferation (Human M21 melanoma cells [2]; Experiment 2: 100 ng/mL, 1.0% serum, 3 days, FIG. 7): very potent anti-proliferative activity; M21 tumor cell proliferation (Human M21 melanoma cells [2]; Experiment 3: 50 μg/mL, 0.5% serum, 3 days, FIG. 15): very potent anti-proliferative activity; M21 tumor cell proliferation (Human M21 melanoma cells [2]; Experiment 8: 50 μg/mL, 24 hours, FIG. 12A): very potent anti-proliferative activity; cell morphology, C8161 (C8161 melanoma cells): significant cell rounding; effect on proliferation of normal human melanocytes (Normal human melanocytes): very little effect; cell morphology, M21 (Human M21 melanoma cells [3]): significant cell rounding; C8161 tumor cell proliferation [4]: very potent anti-proliferative activity; A375 tumor cell proliferation [5]: very potent anti-proliferative activity; MDA-MB 231 cell proliferation [6]: very potent anti-proliferative activity; effect on proliferation of normal human keratinocytes [7]: very little effect; inhibition of M21 melanoma tumor growth (M21 melanoma cells; Experiment 9: daily i.p., 1.0 μg/day): Significant inhibition; inhibition of tumor growth (M21 melanoma cells; Experiment 10: daily i.p., 0.1, 0.5, or 1.0 μg/day, days 8, 14, and 21 (P<0.05), FIG. 16): significant inhibition of tumor growth; inhibition of tumor growth (M21 melanoma cells; Experiment 11: 1.0 μg daily, day 21 (P<0.05), FIG. 17): significant inhibition of tumor growth
